Measured values taken from US20240327393A1 (SIRONAX LTD., priority 2021, published 2024).

What follows are compounds tested on HT-1080 (ATCC, CCL-121) cells (assay: HT-1080 cell viability assay with ferroptosis inducer RSL3 (Cell Titer-Glo)). Conditions: Homo sapiens; HT-1080 cells treated with RSL3; 3-fold, 10-point dilution, 1.1 μM highest concentration; Table 2; read-out: EC50 (nM), ferroptosis inhibitory activity.
Assay type: cell-based
Outline: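 EC50 was derived by sigmoidal dose-response regression of CellTiter-Glo luminescence viability, expressed relative to untreated wells. Compounds were tested in a ten-point, threefold dilution series (highest 1.1 μM) in the presence of the ferroptosis inducer RSL3. HT-1080 cells had been seeded at 6000 per well and grown overnight first.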

For `CC1CN(c2ccc(Nc3ccc4c(c3)OCC(=O)N4C)c(F)c2)CC(C)O1` (stereo not drawn) [Compound 74, 7-((4-(2,6-dimethylmorpholino)-2-fluorophenyl)amino)-4-methyl-2H-benzo[b][1,4]oxazin-3(4H)-one], which EC50 is on record?
The EC50 was 0.1 to 100 nM.

Which EC50 does the source give for `CC1CN(c2ccc(Nc3ccc4c(c3)OCCN4C)cc2)CC(C)O1` (stereo not drawn) [Compound 60, N-(4-(2,6-dimethylmorpholino)phenyl)-4-methyl-3,4-dihydro-2H-benzo[b][1,4]oxazin-7-amine] here?
The EC50 was 0.1 to 100 nM.

`CCN1CCc2cc(Nc3ccccc3)ccc2C1` [Compound 105, 2-ethyl-N-phenyl-1,2,3,4-tetrahydroisoquinolin-6-amine] was tested. Which EC50 did it give?
Its EC50 is 0.1 to 100 nM.

How did the EC50 turn out when `O=C1c2ccc(Nc3ccc(N4CCC(C(F)(F)F)CC4)cc3)cc2CN1CC1CC1` [Compound 179, 2-(cyclopropylmethyl)-5-((4-(4-(trifluoromethyl)piperidin-1-yl)phenyl)amino)isoindolin-1-one] was run?
Its EC50 is 0.1 to 100 nM.

Which EC50 does the source give for `CC(C)(C)c1ccc(Nc2ccc3cc(CCN)c(=O)oc3c2)cc1` [Compound 124, 3-(2-aminoethyl)-7-((4-(tert-butyl)phenyl)amino)-2H-chromen-2-one] here?
Its EC50 is 0.1 to 100 nM.

How did the EC50 turn out when `CNc1cc(Nc2ccc3c(c2)OCC(=O)N3C)ccc1N1CC(C)OC(C)C1` (stereo not drawn) [Compound 19, 7-((4-(2,6-dimethylmorpholino)-3-(methylamino)phenyl)amino)-4-methyl-2H-benzo[b][1,4]oxazin-3(4H)-one] was run?
The EC50 was 0.1 to 100 nM.

With `Cn1c(N(CC2CC2)CC2CC2)cc2ccc(Nc3ccc(N4CCC(C(F)(F)F)CC4)cc3)cc21` [Compound 397, N2,N2-bis(cyclopropylmethyl)-1-methyl-N6-(4-(4-(trifluoromethyl)piperidin-1-yl)phenyl)-1H-indole-2,6-diamine] as the compound, how does the EC50 read?
The EC50 was 0.1 to 100 nM.

`CCCCCOc1ccc(Nc2ccc3c(c2)OCC(=O)N3C)cc1OC` [Compound 32, 7-((3-methoxy-4-(pentyloxy)phenyl)amino)-4-methyl-2H-benzo[b][1,4]oxazin-3(4H)-one] was tested. Which EC50 did it give?
The EC50 was 0.1 to 100 nM.

For `Cn1c(=O)oc2ccc(Nc3cnc(N4CCC(C(F)(F)F)CC4)c(F)c3)cc21` [Compound 388, 5-((5-fluoro-6-(4-(trifluoromethyl)piperidin-1-yl)pyridin-3-yl)amino)-3-methylbenzo[d]oxazol-2(3H)-one], which EC50 is on record?
Its EC50 is 0.1 to 100 nM.

Which EC50 does the source give for `Cn1c(=O)n(C)c2cc(Nc3ccc(N4CCCC4)cc3)ccc21` [Compound 271, 1,3-dimethyl-5-((4-(pyrrolidin-1-yl)phenyl)amino)-1,3-dihydro-2H-benzo[d]imidazol-2-one] here?
Its EC50 is 0.1 to 100 nM.

Which EC50 does the source give for `Cc1cc(=O)oc2cc(Nc3ccc(C(C)(C)C)cc3)ccc12` [Compound 118, 7-((4-(tert-butyl)phenyl)amino)-4-methyl-2H-chromen-2-one] here?
The EC50 was 0.1 to 100 nM.

For `CC1CCC(C)N1c1ccc(Nc2ccc3c(c2)n(C)c(=O)n3C)cc1` (stereo not drawn) [Compound 254, 5-((4-(2,5-dimethylpyrrolidin-1-yl)phenyl)amino)-1,3-dimethyl-1,3-dihydro-2H-benzo[d]imidazol-2-one], which EC50 is on record?
The EC50 was 0.1 to 100 nM.

`CC1CN(c2ccc(Nc3ccc4c(cnn4C)c3)cc2)CC(C)O1` (stereo not drawn) [Compound 422, N-(4-(2,6-dimethylmorpholino)phenyl)-1-methyl-1H-indazol-5-amine] was tested. Which EC50 did it give?
Its EC50 is 0.1 to 100 nM.

With `CCCOc1cc(Nc2ccc3c(c2)OCC(=O)N3C)ccc1N1CCC(C(F)(F)F)CC1` [Compound 8, 4-methyl-7-((3-propoxy-4-(4-(trifluoromethyl)piperidin-1-yl)phenyl)amino)-2H-benzo[b][1,4]oxazin-3(4H)-one] as the compound, how does the EC50 read?
The EC50 was 0.1 to 100 nM.

How did the EC50 turn out when `CC1CC(c2ccc(Nc3ccc4c(c3)OCC(=O)N4)cc2)CC(C)O1` (stereo not drawn) [Compound 92, 7-((4-(2,6-dimethyltetrahydro-2H-pyran-4-yl)phenyl)amino)-2H-benzo[b][1,4]oxazin-3(4H)-one] was run?
The EC50 was 0.1 to 100 nM.

`CN1C(=O)COc2cc(Nc3ccc(N4CCC(C(F)(F)F)CC4)cc3)ccc21` [Compound 2, 4-methyl-7-((4-(4-(trifluoromethyl)piperidin-1-yl)phenyl)amino)-2H-benzo[b][1,4]oxazin-3(4H)-one] was tested. Which EC50 did it give?
Its EC50 is 0.1 to 100 nM.

For `CC(C)(C)c1ccc(Nc2ccc3c(CCN)cc(=O)oc3c2)cc1` [Compound 121, 4-(2-aminoethyl)-7-((4-(tert-butyl)phenyl)amino)-2H-chromen-2-one], which EC50 is on record?
Its EC50 is 0.1 to 100 nM.

Which EC50 does the source give for `Cn1nnc2ccc(Nc3ccc(N4CCC(C(F)(F)F)CC4)cc3)cc21` [Compound 314, 1-methyl-N-(4-(4-(trifluoromethyl)piperidin-1-yl)phenyl)-1H-benzo[d][1,2,3]triazol-6-amine] here?
The EC50 was 0.1 to 100 nM.

`Cc1cc2c(cc1Nc1ccc(N3CCC(C(F)(F)F)CC3)cc1)OCC(=O)N2C` [Compound 157] was tested. Which EC50 did it give?
The EC50 was 0.1 to 100 nM.

`CNCCn1c(=O)n(C)c2cc(Nc3ccc(N4CC(C)OC(C)C4)cc3)ccc21` (stereo not drawn) [Compound 436, 5-((4-(2,6-dimethylmorpholino)phenyl)amino)-3-methyl-1-(2-(methylamino)ethyl)-1H-benzo[d]imidazol-2(3H)-one] was tested. Which EC50 did it give?
The EC50 was 0.1 to 100 nM.

How did the EC50 turn out when `Cc1cc(N2CCC(C)CC2)c(Cl)cc1Nc1ccc2c(c1)n(C)c(=O)n2C` [Compound 265, 5-((5-chloro-2-methyl-4-(4-methylpiperidin-1-yl)phenyl)amino)-1,3-dimethyl-1,3-dihydro-2H-benzo[d]imidazol-2-one] was run?
Its EC50 is 0.1 to 100 nM.

For `CN1Cc2cc(Nc3ccc(N4CC5(CCCC5)C4)cc3)ccc2C1=O` [Compound 246, 5-((4-(2-azaspiro[3.4]octan-2-yl)phenyl)amino)-2-methylisoindolin-1-one], which EC50 is on record?
Its EC50 is 0.1 to 100 nM.

`Cn1c(=O)n(C)c2cc(Nc3ccc(C4CCCCC4)cc3)ccc21` [Compound 394, 5-((4-cyclohexylphenyl)amino)-1,3-dimethyl-1,3-dihydro-2H-benzo[d]imidazol-2-one] was tested. Which EC50 did it give?
Its EC50 is 0.1 to 100 nM.

`COc1cc(Nc2ccc3c(c2)OCC(=O)N3C)ccc1N1CCC(C(F)(F)F)CC1` [Compound 91, 7-((3-methoxy-4-(4-(trifluoromethyl)piperidin-1-yl)phenyl)amino)-4-methyl-2H-benzo[b][1,4]oxazin-3(4H)-one] was tested. Which EC50 did it give?
Its EC50 is 0.1 to 100 nM.

How did the EC50 turn out when `Cc1cc(N2CC(C)OC(C)C2)c(F)cc1Nc1ccc2c(c1)OCC(=O)N2C` (stereo not drawn) [Compound 61, 7-((4-(2,6-dimethylmorpholino)-5-fluoro-2-methylphenyl)amino)-4-methyl-2H-benzo[b][1,4]oxazin-3(4H)-one] was run?
Its EC50 is 0.1 to 100 nM.

Same assay, conditions: Homo sapiens; HT-1080 cells treated with RSL3; 3-fold, 10-point dilution, 1.1 μM highest concentration; Table 3; read-out: EC50 (nM), ferroptosis inhibitory activity

Which EC50 does the source give for `COc1cc(Nc2ccc(N3CCC(C(F)(F)F)CC3)cc2C)cc2c1N(C)C(=O)CO2` [Compound 565, 5-methoxy-4-methyl-7-((2-methyl-4-(4-(trifluoromethyl)piperidin-1-yl)phenyl)amino)-2H-benzo[b][1,4]oxazin-3(4H)-one] here?
The EC50 was 0.1 to 100 nM.

With `Cc1cc(N2CC(O)(C(F)(F)F)C2)ccc1Nc1ccc2c(c1)OCCC(=O)N2` [Compound 649, 8-[4-[3-hydroxy-3-(trifluoromethyl)azetidin-1-yl]-2-methyl-anilino]-3,5-dihydro-2H-1,5-benzoxazepin-4-one] as the compound, how does the EC50 read?
Its EC50 is 0.1 to 100 nM.

With `Cc1cc(N2CCC(C(F)(F)F)C2)ccc1Nc1ccc2c(c1)OCC(=O)N2` (stereo not drawn) [Compound 587, 7-((2-methyl-4-(3-(trifluoromethyl)pyrrolidin-1-yl)phenyl)amino)-2H-benzo[b][1,4]oxazin-3(4H)-one] as the compound, how does the EC50 read?
Its EC50 is 0.1 to 100 nM.

`Cc1cc(N2CCC(C(F)(F)F)CC2)ccc1Nc1ccc2[nH]c(N)nc2c1` [Compound 526, N5-(2-methyl-4-(4-(trifluoromethyl)piperidin-1-yl)phenyl)-1H-benzo[d]imidazole-2,5-diamine] was tested. Which EC50 did it give?
The EC50 was 0.1 to 100 nM.

With `O=C1COc2cc(Nc3ccc(N4CCC(O)(C(F)(F)F)CC4)cc3)ccc2N1` [Compound 510, 7-((4-(4-hydroxy-4-(trifluoromethyl)piperidin-1-yl)phenyl)amino)-2H-benzo[b][1,4]oxazin-3(4H)-one] as the compound, how does the EC50 read?
The EC50 was 0.1 to 100 nM.

For `CN1C(=O)COc2cc(Nc3ccc(N4CCC(C(F)(F)F)CC4)cc3)c(N)cc21` [Compound 469, 6-amino-4-methyl-7-((4-(4-(trifluoromethyl)piperidin-1-yl)phenyl)amino)-2H-benzo[b][1,4]oxazin-3(4H)-one], which EC50 is on record?
Its EC50 is 0.1 to 100 nM.

`Cc1cc(N2CCC(C(F)(F)F)CC2)ccc1Nc1ccc2c(c1)OC(CO)C(=O)N2` (stereo not drawn) [Compound 602, 2-(hydroxymethyl)-7-((2-methyl-4-(4-(trifluoromethyl)piperidin-1-yl)phenyl)amino)-2H-benzo[b][1,4]oxazin-3(4H)-one] was tested. Which EC50 did it give?
Its EC50 is 0.1 to 100 nM.

How did the EC50 turn out when `O=C1COc2cc(Nc3ccc(N4CCC(C(F)(F)F)CC4)cn3)ccc2N1` [Compound 476] was run?
The EC50 was 0.1 to 100 nM.

How did the EC50 turn out when `Cc1cc(N2CCC(C(F)(F)F)CC2)ccc1Nc1ccc2[nH]cnc2c1` [Compound 567] was run?
Its EC50 is 0.1 to 100 nM.

Which EC50 does the source give for `Cc1cc(N2CCC(C(F)(F)F)CC2)ccc1Nc1ccc2c(c1)OCCNC2=O` [Compound 531, 8-((2-methyl-4-(4-(trifluoromethyl)piperidin-1-yl)phenyl)amino)-3,4-dihydrobenzo[f][1,4]oxazepin-5(2H)-one] here?
Its EC50 is 0.1 to 100 nM.

Which EC50 does the source give for `Cc1cc(N2CCC2)ccc1Nc1ccc2c(c1)OCCC(=O)N2` [Compound 586, 8-((4-(azetidin-1-yl)-2-methylphenyl)amino)-2,3-dihydrobenzo[b][1,4]oxazepin-4(5H)-one] here?
Its EC50 is 0.1 to 100 nM.

`Cc1cc(N2CCC(C(F)(F)F)CC2)ccc1Nc1ccc2c(c1)NCCC(=O)N2` [Compound 643, 7-((2-methyl-4-(4-(trifluoromethyl)piperidin-1-yl)phenyl)amino)-1,3,4,5-tetrahydro-2H-benzo[b][1,4]diazepin-2-one] was tested. Which EC50 did it give?
Its EC50 is 0.1 to 100 nM.

With `Cc1cc(N2CCC(C(F)(F)F)CC2)ccc1Nc1cnc2c(c1)OCC(=O)N2` [Compound 460, 7-((2-methyl-4-(4-(trifluoromethyl)piperidin-1-yl)phenyl)amino)-2H-pyrido[3,2-b][1,4]oxazin-3(4H)-one] as the compound, how does the EC50 read?
Its EC50 is 0.1 to 100 nM.

`CCc1nc(N2C[C@@H](C)O[C@@H](C)C2)ccc1Nc1ccc2c(c1)OCC(=O)N2` [Compound 522, 7-((6-((2S,6R)-2,6-dimethylmorpholino)-2-ethylpyridin-3-yl)amino)-2H-benzo[b][1,4]oxazin-3(4H)-one] was tested. Which EC50 did it give?
Its EC50 is 0.1 to 100 nM.
